# Measured values from ChEMBL document CHEMBL1147491, “Complestatin synthetic studies; the effect of the amino acid configuration on peptide backbone conformation in the common western BCD macrocycle” (Bioorg Med Chem Lett, 2004).
# Legend:
# Design in all cases: species or system Homo sapiens
# [1] = Compound required to inhibit binding of CD4 to gp120 in the presence of bovine serum albumin(BSA)
# [2] = Compound required to inhibit binding of CD4 to gp120 in the absence of bovine serum albumin(BSA)
# [3] = Compound required to inhibit binding of CD4 to gp120 at 100 uM concentration; No inhibition
IC50 [1],IC50 [2],Compound,IC50 [3]
2 µM,32 µM,CN1C(=O)[C@@H](c2cc(Cl)c(O)c(Cl)c2)NC(=O)[C@@H]2NC(=O)[C@@H](c3cc(Cl)c(O)c(Cl)c3)NC(=O)[C@H](NC(=O)C(=O)c3cc(Cl)c(O)c(Cl)c3)Cc3c[nH]c4c(cccc34)-c3cc2cc(c3O)Oc2ccc(cc2)C[C@H]1C(=O)N[C@@H](C(=O)O)c1ccc(O)cc1 [CHLOROPEPTIN],
,,CN[C@H](CC(C)C)C(=O)N[C@H]1C(=O)N[C@@H](CC(N)=O)C(=O)N[C@H]2C(=O)N[C@H]3C(=O)N[C@H](C(=O)N[C@H](C(=O)O)c4cc(O)cc(O)c4-c4cc3ccc4O)[C@H](O)c3ccc(c(Cl)c3)Oc3cc2cc(c3O[C@@H]2O[C@H](CO)[C@@H](O)[C@H](O)[C@H]2O[C@H]2C[C@](C)(N)[C@H](O)[C@H](C)O2)Oc2ccc(cc2Cl)[C@H]1O [VANCOMYCIN],No inhibition
